# Measurements from paper PMC8279479, “Application of Alanine Scanning to Determination of Amino Acids Essential for Peptide Adsorption at the Solid/Solution Interface and Binding to the Receptor: Surface-Enhanced Raman/Infrared Spectroscopy versus Bioactivity Assays” (Journal of Medicinal Chemistry, 2021).
# Where no end group is shown, it is not given here.
# Key:
# human BB2 receptor = human BB2 receptor (Homo sapiens, UniProt P30550); experiment: Intracellular inositol monophosphate (IP-One HTRF) assay, HEK-293 cells overexpressing BB2 receptor; format: cell-based; details: BB2R HEK-293
# Protocol: (§1) Additionally, reference compounds BIM23042 and PD176252 (both from Tocris) antagonists of BB1 and BB2 receptors were used in a concentration of 10 μM (Figure 7).
# (§2) The human BB1 receptor NM_002511.3 (GenScript) and BB2 receptor NM_002091 (cDNA Resource Center) sequences in pcDNA 3.1 + plasmids were introduced into the host cell by lipofection (Lipofectamine Reagent 3000, Thermo Fisher Scientific). Then, the transfected cells were selected with G-418 antibiotic at a dose of 500 μg/mL. Cells were grown under standard cell culture conditions (37 °C, 5% CO2) in DMEM supplemented with 10% FBS and Glutamax.
# (§3) Receptor activity was determined by measuring the intracellular inositol monophosphate concentration using a homogeneous time-resolved fluorescence IP-one kit from Cis-bio, according to the manual. Briefly, 24 h before assay, cells were grown in an FBS-free DMEM medium. Then, the cells were scraped and centrifuged. The cell pellet was suspended in Hanks-HEPES (130 mM NaCl, 5.4 mM KCl, 1.8 mM CaCl2, 0.8 mM MgSO4, 0.9 mM NaH2PO4, 20 mM HEPES, LiCl 50 mM, and 3.25 mM glucose; pH 7.4). […] The cell suspension was then mixed with 5 μL of the IP1-acceptor conjugate and 5 μL of the anti-IP1-donor conjugate. After 1 h incubation at RT, fluorescence was read at 620 and 665 nm (Tecan; Infinite M1000). Results were calculated as the ratio (665 nm/620 nm) multiplied by 10^4. The signal was inversely proportional to the concentration of IP1 in the samples. Each sample was prepared in triplicate. Data were analyzed using GraphPad Prism version 5.04 for Windows (GraphPad software).
# human BB1 receptor = human BB1 receptor (Homo sapiens, UniProt P28336); experiment: Intracellular inositol monophosphate (IP-One HTRF) assay, HEK-293 cells overexpressing BB1 receptor; format: cell-based; details: BB1R HEK-293
# Protocol: as §1, §2, §3
# Chain of human BB1 receptor (P28336 whole entry): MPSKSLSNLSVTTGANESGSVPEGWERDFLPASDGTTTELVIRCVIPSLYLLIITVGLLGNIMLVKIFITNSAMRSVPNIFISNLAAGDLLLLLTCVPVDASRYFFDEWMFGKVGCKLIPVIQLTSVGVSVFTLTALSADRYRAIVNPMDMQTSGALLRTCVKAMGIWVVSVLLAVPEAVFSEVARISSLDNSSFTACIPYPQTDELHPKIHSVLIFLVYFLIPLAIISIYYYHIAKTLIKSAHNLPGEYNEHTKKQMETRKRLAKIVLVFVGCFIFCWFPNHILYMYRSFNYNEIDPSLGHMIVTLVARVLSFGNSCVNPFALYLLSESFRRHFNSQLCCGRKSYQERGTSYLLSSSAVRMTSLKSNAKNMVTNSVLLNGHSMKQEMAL
# Chain of human BB2 receptor (P30550 whole entry): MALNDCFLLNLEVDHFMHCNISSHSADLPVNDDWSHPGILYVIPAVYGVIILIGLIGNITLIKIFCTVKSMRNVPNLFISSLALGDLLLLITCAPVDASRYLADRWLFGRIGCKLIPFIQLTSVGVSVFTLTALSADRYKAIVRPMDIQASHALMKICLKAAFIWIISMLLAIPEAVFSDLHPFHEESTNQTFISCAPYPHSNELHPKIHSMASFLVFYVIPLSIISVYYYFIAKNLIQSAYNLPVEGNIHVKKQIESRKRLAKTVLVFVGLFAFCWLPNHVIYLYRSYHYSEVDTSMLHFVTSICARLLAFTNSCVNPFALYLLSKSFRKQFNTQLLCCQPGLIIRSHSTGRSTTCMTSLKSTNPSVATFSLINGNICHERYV
Compound,Effect of reference antagonist alone on basal receptor activity (IP1) (human BB2 receptor; reference compound 10 μM alone (Figure 7B)),Effect of reference antagonist on IP1 concentration in the presence of agonist (human BB2 receptor; reference compound 10 μM with BN 150 nM (Figure 7B)),Effect of reference antagonist alone on basal receptor activity (IP1) (human BB1 receptor; reference compound 10 μM alone (Figure 7A)),Effect of reference antagonist on IP1 concentration in the presence of agonist (human BB1 receptor; reference compound 10 μM with BN 150 nM (Figure 7A)),"Agonist effect of compound alone on intracellular IP1 (human BB2 receptor; compound alone 25 μM, 1 h, 37 °C (Figure 7B))","Agonist effect of compound alone on intracellular IP1 (human BB1 receptor; compound alone 25 μM, 1 h, 37 °C (Figure 7A))"
COc1ccc(C2(CNC(=O)[C@](C)(Cc3c[nH]c4ccccc34)NC(=O)Nc3ccc([N+](=O)[O-])cc3)CCCCC2)nc1 [PD176252],inhibited the basal activity,significantly reduced its level,inhibited the basal activity,downregulated IP1 concentration to control level,–,–
Asn-Gln-Ala-Ala-Val-Gly-His-Leu-Met-NH2 (NQAAVGHLM-NH2) [[Ala^3]BN^6–14],–,–,–,–,little change in the activity,little change in the activity
